What was measured:
Assay in all cases: relative viability (nuclei count vs DMSO), 5 days (fraction); higher = more cells survive
HARA = test system: HARA
Procedure, shortened: (§1)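 Lung cancer cell lines in 1536-well plates got either a single drug or a fixed anchor-drug dose together with five library-drug doses (not always all listed) in √10 steps, by pin tool, on the day after seeding. Nuclei were counted after 5 days, and relative viability is the treated-to-vehicle ratio of nuclei counts. Values are medians of duplicate plates.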

NCI-H2170 = test system: NCI-H2170
Procedure, shortened: as §1

LXF-289 = test system: LXF-289
Procedure, shortened: as §1

HOP-62 = test system: HOP-62
Procedure, shortened: as §1

NCI-H1993 = test system: NCI-H1993
Procedure, shortened: as §1

SK-LU-1 = test system: SK-LU-1
Procedure, shortened: as §1

NCI-H2009 = test system: NCI-H2009
Procedure, shortened: as §1

NCI-H3122 = test system: NCI-H3122
Procedure, shortened: as §1

SK-MES-1 = test system: SK-MES-1
Procedure, shortened: as §1

A-427 = test system: A-427
Procedure, shortened: as §1

COR-L23 = test system: COR-L23
Procedure, shortened: as §1

NCI-H2228 = test system: NCI-H2228
Procedure, shortened: as §1

NCI-H1793 = test system: NCI-H1793
Procedure, shortened: as §1

ABC-1 = test system: ABC-1
Procedure, shortened: as §1

NCI-H727 = test system: NCI-H727
Procedure, shortened: as §1

SW 1573 = test system: SW 1573
Procedure, shortened: as §1

NCI-H1792 = test system: NCI-H1792
Procedure, shortened: as §1

NCI-H596 = test system: NCI-H596
Procedure, shortened: as §1

PC-3 [JPC-3] = test system: PC-3 [JPC-3]
Procedure, shortened: as §1

LK-2 = test system: LK-2
Procedure, shortened: as §1

NCI-H1944 = test system: NCI-H1944
Procedure, shortened: as §1

EMC-BAC-2 = test system: EMC-BAC-2
Procedure, shortened: as §1

`NC(=O)Nc1cc(-c2cccc(F)c2)sc1C(=O)N[C@H]1CCCNC1` [AZD7762] + CS(=O)(=O)CCNCc1ccc(-c2ccc3ncnc(Nc4ccc(OCc5cccc(F)c5)c(Cl)c4)c3c2)o1 [Lapatinib] (partner 2 µM) showed a relative viability (HARA; first compound 0.01 µM) of 0.851, a relative viability (HARA; first compound 0.03162 µM) of 0.763 and a relative viability (HARA; first compound 0.1 µM) of 0.759. For the same molecule, the relative viability (HARA; first compound 0.3162 µM) was 0.781, the relative viability (HARA; first compound 1 µM) was 0.256 and the relative viability (NCI-H2170; first compound 0.01 µM) was 0.289. The relative viability (NCI-H2170; first compound 0.03162 µM) was 0.256, the relative viability (NCI-H2170; first compound 0.1 µM) was 0.26 and the relative viability (NCI-H2170; first compound 0.3162 µM) was 0.263. For the same molecule, the relative viability (NCI-H2170; first compound 1 µM) was 0.257, the relative viability (LXF-289; first compound 0.01 µM) was 0.906 and the relative viability (LXF-289; first compound 0.03162 µM) was 0.909. The relative viability (LXF-289; first compound 0.1 µM) was 0.973, the relative viability (LXF-289; first compound 0.3162 µM) was 0.912 and the relative viability (LXF-289; first compound 1 µM) was 0.983. The relative viability (HOP-62; first compound 0.01 µM) was 0.993, the relative viability (HOP-62; first compound 0.03162 µM) was 1.06 and the relative viability (HOP-62; first compound 0.1 µM) was 1.27. For the same molecule, the relative viability (HOP-62; first compound 0.3162 µM) was 0.989, the relative viability (HOP-62; first compound 1 µM) was 0.565 and the relative viability (NCI-H1993; first compound 0.01 µM) was 0.791. The relative viability (NCI-H1993; first compound 0.03162 µM) was 0.789, the relative viability (NCI-H1993; first compound 0.1 µM) was 0.664 and the relative viability (NCI-H1993; first compound 0.3162 µM) was 0.89. For the same molecule, the relative viability (NCI-H1993; first compound 1 µM) was 0.793, the relative viability (SK-LU-1; first compound 0.01 µM) was 0.943 and the relative viability (SK-LU-1; first compound 0.03162 µM) was 0.714. It also gave a relative viability (SK-LU-1; first compound 0.1 µM) of 0.456, a relative viability (SK-LU-1; first compound 0.3162 µM) of 0.276 and a relative viability (SK-LU-1; first compound 1 µM) of 0.217. For the same molecule, the relative viability (NCI-H2009; first compound 0.01 µM) was 1.25, the relative viability (NCI-H2009; first compound 0.03162 µM) was 1.04 and the relative viability (NCI-H2009; first compound 0.1 µM) was 1. The relative viability (NCI-H2009; first compound 0.3162 µM) was 0.896, the relative viability (NCI-H2009; first compound 1 µM) was 0.518 and the relative viability (NCI-H3122; first compound 0.01 µM) was 0.978. The relative viability (NCI-H3122; first compound 0.03162 µM) was 1.06, the relative viability (NCI-H3122; first compound 0.1 µM) was 1.03 and the relative viability (NCI-H3122; first compound 0.3162 µM) was 0.907. The relative viability (NCI-H3122; first compound 1 µM) was 1.09, the relative viability (SK-MES-1; first compound 0.01 µM) was 0.434 and the relative viability (SK-MES-1; first compound 0.03162 µM) was 0.396. It also gave a relative viability (SK-MES-1; first compound 0.1 µM) of 0.457, a relative viability (SK-MES-1; first compound 0.3162 µM) of 0.468 and a relative viability (SK-MES-1; first compound 1 µM) of 0.469. It also gave a relative viability (A-427; first compound 0.01 µM) of 1.09, a relative viability (A-427; first compound 0.03162 µM) of 1.05 and a relative viability (A-427; first compound 0.1 µM) of 1.07. The relative viability (A-427; first compound 0.3162 µM) was 0.938, the relative viability (A-427; first compound 1 µM) was 0.716 and the relative viability (COR-L23; first compound 0.01 µM) was 1.16. It also gave a relative viability (COR-L23; first compound 0.03162 µM) of 1.06, a relative viability (COR-L23; first compound 0.1 µM) of 0.953 and a relative viability (COR-L23; first compound 0.3162 µM) of 0.729. For the same molecule, the relative viability (COR-L23; first compound 1 µM) was 0.131, the relative viability (NCI-H2228; first compound 0.01 µM) was 1.28 and the relative viability (NCI-H2228; first compound 0.03162 µM) was 1.46. The relative viability (NCI-H2228; first compound 0.1 µM) was 1.22, the relative viability (NCI-H2228; first compound 0.3162 µM) was 0.34 and the relative viability (NCI-H2228; first compound 1 µM) was 0.231. For the same molecule, the relative viability (NCI-H1793; first compound 0.01 µM) was 1.08, the relative viability (NCI-H1793; first compound 0.03162 µM) was 0.721 and the relative viability (NCI-H1793; first compound 0.1 µM) was 0.805. The relative viability (NCI-H1793; first compound 0.3162 µM) was 0.874, the relative viability (NCI-H1793; first compound 1 µM) was 0.261 and the relative viability (ABC-1; first compound 0.01 µM) was 1.46. It also gave a relative viability (ABC-1; first compound 0.03162 µM) of 1.33, a relative viability (ABC-1; first compound 0.1 µM) of 0.983 and a relative viability (ABC-1; first compound 0.3162 µM) of 1.2. For the same molecule, the relative viability (ABC-1; first compound 1 µM) was 0.981, the relative viability (NCI-H727; first compound 0.01 µM) was 0.891 and the relative viability (NCI-H727; first compound 0.03162 µM) was 0.985. For the same molecule, the relative viability (NCI-H727; first compound 0.1 µM) was 0.578, the relative viability (NCI-H727; first compound 0.3162 µM) was 0.36 and the relative viability (NCI-H727; first compound 1 µM) was 0.271. The relative viability (SW 1573; first compound 0.01 µM) was 1.29, the relative viability (SW 1573; first compound 0.03162 µM) was 1.23 and the relative viability (SW 1573; first compound 0.1 µM) was 1.16. For the same molecule, the relative viability (SW 1573; first compound 0.3162 µM) was 1.24, the relative viability (SW 1573; first compound 1 µM) was 1.12 and the relative viability (NCI-H1792; first compound 0.01 µM) was 0.965. For the same molecule, the relative viability (NCI-H1792; first compound 0.03162 µM) was 0.911, the relative viability (NCI-H1792; first compound 0.1 µM) was 0.925 and the relative viability (NCI-H1792; first compound 0.3162 µM) was 0.945. It also gave a relative viability (NCI-H1792; first compound 1 µM) of 1.05, a relative viability (NCI-H596; first compound 0.01 µM) of 1.11 and a relative viability (NCI-H596; first compound 0.03162 µM) of 1.01. The relative viability (NCI-H596; first compound 0.1 µM) was 1.13, the relative viability (NCI-H596; first compound 0.3162 µM) was 1.11 and the relative viability (NCI-H596; first compound 1 µM) was 0.891. The relative viability (PC-3 [JPC-3]; first compound 0.01 µM) was 0.473, the relative viability (PC-3 [JPC-3]; first compound 0.03162 µM) was 0.447 and the relative viability (PC-3 [JPC-3]; first compound 0.1 µM) was 0.372. For the same molecule, the relative viability (PC-3 [JPC-3]; first compound 0.3162 µM) was 0.46, the relative viability (PC-3 [JPC-3]; first compound 1 µM) was 0.432 and the relative viability (LK-2; first compound 0.01 µM) was 1.02. It also gave a relative viability (LK-2; first compound 0.03162 µM) of 1.03, a relative viability (LK-2; first compound 0.1 µM) of 0.759 and a relative viability (LK-2; first compound 0.3162 µM) of 0.828. It also gave a relative viability (LK-2; first compound 1 µM) of 0.573, a relative viability (NCI-H1944; first compound 0.01 µM) of 0.977 and a relative viability (NCI-H1944; first compound 0.03162 µM) of 0.876. It also gave a relative viability (NCI-H1944; first compound 0.1 µM) of 1.01, a relative viability (NCI-H1944; first compound 0.3162 µM) of 0.846 and a relative viability (NCI-H1944; first compound 1 µM) of 1.01. The relative viability (EMC-BAC-2; first compound 0.01 µM) was 0.908, the relative viability (EMC-BAC-2; first compound 0.03162 µM) was 0.929 and the relative viability (EMC-BAC-2; first compound 0.1 µM) was 0.919. For the same molecule, the relative viability (EMC-BAC-2; first compound 0.3162 µM) was 0.91 and the relative viability (EMC-BAC-2; first compound 1 µM) was 0.894.

— the supplement of paper PMC10307832
